Experimental data published in paper PMC6242839 (Nature Communications, 2018).
Converted amounts (≈) assume the structure as drawn.

What was measured:
[1] = tested on: B. anthracis Sterne strain; experiment: microbe, parasite or virus in culture; assay type: cell-based; conditions: Bacillus anthracis; 16 h at 37 °C; read-out: MIC B. anthracis Sterne
[2] = tested on: B. anthracis pathogenic strain (human isolate); experiment: microbe, parasite or virus in culture; assay type: cell-based; conditions: Bacillus anthracis; 16 h at 37 °C; read-out: MIC B. anthracis Pathogenic
[3] = tested on: B. anthracis ovine strain (animal isolate); experiment: microbe, parasite or virus in culture; assay type: cell-based; conditions: Bacillus anthracis; 16 h at 37 °C; read-out: MIC B. anthracis Ovine
[4] = tested on: E. faecalis (ATCC 29212); experiment: microbe, parasite or virus in culture; assay type: cell-based; conditions: Enterococcus faecalis, ATCC29212; 16 h at 37 °C; read-out: MIC E. faecalis
[5] = tested on: B. cereus ATCC 14579; experiment: microbe, parasite or virus in culture; assay type: cell-based, Bacillus cereus; conditions: Bacillus cereus, ATCC14579
[6] = in vitro; conditions: human
[7] = tested on: B. cereus (ATCC 10876); experiment: microbe, parasite or virus in culture; assay type: cell-based; conditions: Bacillus cereus, ATCC10876; 16 h at 37 °C; read-out: MIC B. cereus
[8] = tested on: B. cereus ATCC 14579 strains resistant to known antibiotics; experiment: microbe, parasite or virus in culture; assay type: cell-based, Bacillus cereus
[9] = tested on: Bacillus cereus ATCC 14579; conditions: cited from earlier work

## CCCCCCCCCCCCO[C@H]1C[C@H](O)[C@@H](O)CO1 [Compound 7]
[1]
  MIC: 26 µM (≈ 7.86 µg/mL)
[2]
  MIC: 52 µM (≈ 15.7 µg/mL)
[3]
  MIC: 52 µM (≈ 15.7 µg/mL)
[4]
  MIC: 52 µM (≈ 15.7 µg/mL)
[5]
  MBC: 16 µg/mL (≈ 52.9 µM)
  MIC: 16 µg/mL (≈ 52.9 µM)
[6]
  IC50 at 24 h: > 100 µM
  IC50 at 48 h: 100 µM

## CCCCCCCCCCCCO[C@H]1O[C@H](C)C[C@H](O)[C@H]1O [Compound 11, dodecyl 4,6-dideoxy-α-D-xylo-hexopyranoside]
[1]
  MIC: 12.6 µM (≈ 3.99 µg/mL)
[2]
  MIC: 12.6 µM (≈ 3.99 µg/mL)
[3]
  MIC: 12.6 µM (≈ 3.99 µg/mL)
[4]
  MIC: 12.6 µM (≈ 3.99 µg/mL)
[7]
  MIC: 12.6 µM (≈ 3.99 µg/mL)
[6]
  IC50 at 48 h: 50 µM

## CCCCCCCCCCCCO[C@@H]1O[C@@H](C)[C@H](O)[C@@H](O)[C@H]1O [Compound 6]
[1]
  MIC: 24 µM (≈ 7.98 µg/mL)
[2]
  MIC: 24 µM (≈ 7.98 µg/mL)
[3]
  MIC: 48 µM (≈ 16 µg/mL)
[4]
  MIC: 48 µM (≈ 16 µg/mL)
[5]
  MBC: 32 µg/mL (≈ 96.2 µM)
  MIC: 32 µg/mL (≈ 96.2 µM)

## CCCCCCCCCCCCS[C@@H]1C[C@@H](O)[C@H](O)CO1 [Compound 19]
[1]
  MIC: 50 µM (≈ 15.9 µg/mL)
[2]
  MIC: 25 µM (≈ 7.96 µg/mL)
[3]
  MIC: 50 µM (≈ 15.9 µg/mL)
[4]
  MIC: 50 µM (≈ 15.9 µg/mL)
[7]
  MIC: 25 µM (≈ 7.96 µg/mL)

## CCCCCCCCCCCC[C@@H]1C[C@@H](O)[C@H](O)CO1 [Compound 21, 1-(2-Deoxy-α-D-threo-pentopyranosyl)dodecane]
[1]
  MIC: 28 µM (≈ 8.02 µg/mL)
[2]
  MIC: 28 µM (≈ 8.02 µg/mL)
[3]
  MIC: 28 µM (≈ 8.02 µg/mL)
[4]
  MIC: 56 µM (≈ 16 µg/mL)
[7]
  MIC: 28 µM (≈ 8.02 µg/mL)
[6]
  IC50 at 24 h: > 100 µM
  IC50 at 48 h: 100 µM

## O=C(O)c1cn(C2CC2)c2cc(N3CCNCC3)c(F)cc2c1=O [Ciprofloxacin]
[8]
  MIC of the antibiotic: 50 µg/mL
[9]
  MIC: 0.32 µg/mL (≈ 0.966 µM)

## CCCCCCCCCCCCS[C@H]1C[C@H](O)[C@@H](O)[C@H](C)O1 [Compound 2]
[1]
  MIC: 24 µM (≈ 7.98 µg/mL)
[2]
  MIC: 48 µM (≈ 16 µg/mL)
[3]
  MIC: 48 µM (≈ 16 µg/mL)
[4]
  MIC: > 48 µM
[7]
  MIC: 48 µM (≈ 16 µg/mL)
[6]
  IC50 at 24 h: > 50 µM
  IC50 at 48 h: > 50 µM

## CNC(C)C1CCC(N)C(OC2C(N)CC(N)C(OC3OCC(C)(O)C(NC)C3O)C2O)O1 (centres unmarked) [Gentamicin]
[9]
  MIC: 4 µg/mL (≈ 8.38 µM)

## CCCCCCCCCCCCO[C@@H]1C[C@H](O)[C@@H](O)[C@H](C)O1 [Compound 5]
[1]
  MIC: 202 µM (≈ 63.9 µg/mL)
[2]
  MIC: 101 µM (≈ 32 µg/mL)
[3]
  MIC: 101 µM (≈ 32 µg/mL)
[4]
  MIC: 101 µM (≈ 32 µg/mL)
[7]
  MIC: 202 µM (≈ 63.9 µg/mL)

## CO[C@H]1/C=C/O[C@@]2(C)Oc3c(C)c(O)c4c(O)c(c(/C=N/N5CCN(C)CC5)c(O)c4c3C2=O)NC(=O)/C(C)=C\C=C\[C@H](C)[C@H](O)[C@@H](C)[C@@H](O)[C@@H](C)[C@H](OC(C)=O)[C@@H]1C [Rifampicin]
[9]
  MIC: 0.5 µg/mL (≈ 0.608 µM)

## CCCCCCCCCCCCO[C@@H]1C[C@H](O)[C@@H](O)CO1 [Compound 8]
[1]
  MIC: 26 µM (≈ 7.86 µg/mL)
[2]
  MIC: 26 µM (≈ 7.86 µg/mL)
[3]
  MIC: 52 µM (≈ 15.7 µg/mL)
[4]
  MIC: 52 µM (≈ 15.7 µg/mL)

## Daptomycin
[9]
  MIC: 3.125 µg/mL

## CCCCCCCCCCCCO[C@H]1C[C@@H](O)[C@H](O)CO1 [Compound 18]
[1]
  MIC: 26 µM (≈ 7.86 µg/mL)
[2]
  MIC: 26 µM (≈ 7.86 µg/mL)
[3]
  MIC: 52 µM (≈ 15.7 µg/mL)
[4]
  MIC: 52 µM (≈ 15.7 µg/mL)
[7]
  MIC: 52 µM (≈ 15.7 µg/mL)
[6]
  IC50 at 24 h: > 100 µM
  IC50 at 48 h: > 50 µM

## CCCCCCCCCCCC[C@@H]1C[C@@H](O)[C@H](O)[C@@H](CO)O1 [Compound 14]
[1]
  MIC: 104 µM (≈ 32.9 µg/mL)
[2]
  MIC: 51 µM (≈ 16.1 µg/mL)
[3]
  MIC: 51 µM (≈ 16.1 µg/mL)
[4]
  MIC: 51 µM (≈ 16.1 µg/mL)
[7]
  MIC: 51 µM (≈ 16.1 µg/mL)

## CC1(C)S[C@@H]2[C@H](NC(=O)[C@H](N)c3ccccc3)C(=O)N2[C@H]1C(=O)O [Ampicillin]
[9]
  MIC: 0.25 µg/mL (≈ 0.715 µM)

## CCCCCCCCCCCCO[C@@H]1C[C@@H](O)[C@H](O)CO1 [Compound 17]
[1]
  MIC: 26 µM (≈ 7.86 µg/mL)
[2]
  MIC: 52 µM (≈ 15.7 µg/mL)
[3]
  MIC: 52 µM (≈ 15.7 µg/mL)
[4]
  MIC: > 52 µM
[7]
  MIC: 52 µM (≈ 15.7 µg/mL)
[5]
  MBC: 16 µg/mL (≈ 52.9 µM)
  MIC: 16 µg/mL (≈ 52.9 µM)
[6]
  IC50 at 24 h: > 100 µM
  IC50 at 48 h: > 100 µM

## CCCCCCCCCCCCO[C@H]1O[C@H](CO)C[C@H](O)[C@H]1O [Compound 15]
[1]
  MIC: 51 µM (≈ 17 µg/mL)
[2]
  MIC: 51 µM (≈ 17 µg/mL)
[3]
  MIC: 51 µM (≈ 17 µg/mL)
[4]
  MIC: 51 µM (≈ 17 µg/mL)
[7]
  MIC: 51 µM (≈ 17 µg/mL)
